Data as given in US8466199B2, “Allyloxy and alkyloxy benzoic acid delivery agents” (Emisphere Technologies, Inc., priority 2007, dated 2013).

Assays:
[1] = tested on: fasted male Sprague-Dawley rats; test: Oral delivery of insulin to male Sprague-Dawley rats (blood glucose by glucometer, compared to vehicle control); type: in vivo, rat; settings: oral gavage, 200 mg/kg delivery agent + 0.5 mg/kg insulin, C minimum over 0-60 min, average of experiments
Protocol: Insulin stock solution (15 mg/ml) (Human zinc insulin, Calbiochem-Novabiochem Corp., La Jolla, Calif.) was prepared with deionized water. Oral dosing compositions containing 200 mg/kg of a delivery agent compound of the present invention and 0.5 mg/kg of insulin in an aqueous solution were prepared for the compounds prepared in Examples 2-24.
(§1) One ml of the dosing solution was administered to fasted male Sprague-Dawley rats by oral gavage with an average weight of about 225-250 grams Blood glucose levels were then determined by glucometer (One Touch Ultra®, LifeScan, Inc.) and compared to vehicle control (1 ml/kg of water). Samples were collected prior to dosing (time 0) and at 15, 30, 45 and 60 minutes after dosing. The % glucose reduction is shown below in Table 1. The values correspond to the C minimum, and are an average % reduction with respect to the number of times the experiment was run for each delivery agent.
The solutions were administered to fasted male Sprague-Dawley rats and the % glucose reduction was determined in the same manner as described above.
as §1, with “Insulin stock solution (15 mg/ml) (Human zinc insulin, Calbiochem-Novabiochem Corp., La Jolla, Calif.) was prepared with deionized water. Oral dosing compositions containing 200 mg/kg of a delivery agent compound of the present invention and 0.5 mg/kg of insulin in an aqueous solution were prepared for the compounds prepared in Examples 27-34. One ml” for “One ml”, “about 225-250 grams. Blood glucose” for “about 225-250 grams Blood glucose”, “in Table 3. The values” for “in Table 1. The values”
as §1, with “Insulin stock solution (15 mg/ml) (Human zinc insulin, Calbiochem-Novabiochem Corp., La Jolla, Calif.) was prepared with deionized water. Oral dosing compositions containing 200 mg/kg of a delivery agent compound of the present invention and 0.5 mg/kg of insulin in an aqueous solution were prepared for the compounds prepared in Examples 37-49. One ml” for “One ml”, “about 225-250 grams. Blood glucose” for “about 225-250 grams Blood glucose”, “in Table 5. The values” for “in Table 1. The values”

[2] = tested on: fasted male Sprague-Dawley rats; test: as above; type: in vivo, rat
[3] = Table 2, Insulin Dose 0 mg/kg, Carrier Dose 200 mg/kg
[4] = Table 2, Insulin Dose 0.25 mg/kg, Carrier Dose 200 mg/kg

For `C=CCOc1ccccc1C(=O)O` [Compound 1, 2-Allyloxy-benzoic acid], the “Glucose (Absolute change from Control)” value ([1]; Table 1, aqueous solution) was −35.1%, the “Glucose (Absolute change from Control)” value [2, 3] was −12.5% and the “Glucose (Absolute change from Control)” value ([2]; Table 2, Insulin Dose 0.25 mg/kg, Carrier Dose 100 mg/kg) was −17.9%. The “Glucose (Absolute change from Control)” value [2, 4] was 3.0%.
With `C=CCOc1ccc(C(=O)O)cc1` [Compound 2, 4-Allyloxy-benzoic acid] the “Glucose (Absolute change from Control)” value ([1]; Table 1, aqueous solution) was −42.4%.
`C=CCCOc1ccccc1C(=O)O` [Compound 3, 2-But-3-enyloxy-benzoic acid] was tested, and the “Glucose (Absolute change from Control)” value ([1]; Table 1, aqueous solution) was −25.5%.
With `C=CCCOc1ccc(C(=O)O)cc1` [Compound 4, 4-But-3-enyloxy-benzoic acid] the “Glucose (Absolute change from Control)” value ([1]; Table 1, aqueous solution) was −41.6%, the “Glucose (Absolute change from Control)” value [2, 3] was 8.8% and the “Glucose (Absolute change from Control)” value [2, 4] was −11.4%.
For `C=CCCOc1cccc(C(=O)O)c1` [Compound 5, 3-But-3-enyloxy-benzoic acid], the “Glucose (Absolute change from Control)” value ([1]; Table 1, aqueous solution) was −40.8%, the “Glucose (Absolute change from Control)” value [2, 3] was −6.3% and the “Glucose (Absolute change from Control)” value [2, 4] was −5.4%.
For `C=CCOc1cccc(C(=O)O)c1` [Compound 6, 3-Allyloxy-benzoic acid], the “Glucose (Absolute change from Control)” value ([1]; Table 1, aqueous solution) was −42.8%, the “Glucose (Absolute change from Control)” value [2, 3] was −10.7% and the “Glucose (Absolute change from Control)” value [2, 4] was −18.2%.
In the case of `CC(C)=CCOc1ccccc1C(=O)O` [Compound 7, 2-(3-Methyl-but-2-enyloxy)-benzoic acid], the “Glucose (Absolute change from Control)” value ([1]; Table 1, aqueous solution) is reported as −38.8%.
For `CC(C)=CCOc1cccc(C(=O)O)c1` [Compound 8, 3-(3-Methyl-but-2-enyloxy)-benzoic acid], the “Glucose (Absolute change from Control)” value ([1]; Table 1, aqueous solution) was −31.6%.
With `CC(C)=CCOc1ccc(C(=O)O)cc1` [Compound 9, 4-(3-Methyl-but-2-enyloxy)-benzoic acid] the “Glucose (Absolute change from Control)” value ([1]; Table 1, aqueous solution) was −27.8%.
For `C=CCOc1ccc(OC)cc1C(=O)O` [Compound 10, 2-Allyloxy-5-methoxy-benzoic acid], the “Glucose (Absolute change from Control)” value ([1]; Table 1, aqueous solution) was −27.2%.
For `C=CCOc1cc(OC)ccc1C(=O)O` [Compound 11, 2-Allyloxy-4-methoxy-benzoic acid], the “Glucose (Absolute change from Control)” value ([1]; Table 1, aqueous solution) was −24.0%.
With `C=CCOc1c(OC)cccc1C(=O)O` [Compound 12, 2-Allyloxy-3-methoxy-benzoic acid] the “Glucose (Absolute change from Control)” value ([1]; Table 1, aqueous solution) was −13.5%.
In the case of `C=CCOc1ccc(C)cc1C(=O)O` [Compound 13, 2-Allyloxy-5-methyl-benzoic acid], the “Glucose (Absolute change from Control)” value ([1]; Table 1, aqueous solution) is reported as −30.7%.
`C=CCOc1cccc(C)c1C(=O)O` [Compound 14, 2-Allyloxy-6-methyl-benzoic acid] was tested, and the “Glucose (Absolute change from Control)” value ([1]; Table 1, aqueous solution) was −14.4%.
For `C=C(C)COc1ccccc1C(=O)O` [Compound 15, 2-(2-Methyl-allyloxy)-benzoic acid], the “Glucose (Absolute change from Control)” value ([1]; Table 1, aqueous solution) was −37.4%.
In the case of `C=CCOc1cc(OCCO)ccc1C(=O)O` [Compound 16, 2-Allyloxy-4-(2-hydroxy-ethoxy)-benzoic acid], the “Glucose (Absolute change from Control)” value ([1]; Table 1, aqueous solution) is reported as −4.6%.
In the case of `C=CCOc1ccc(C(C)=O)cc1C(=O)O` [Compound 17, 5-Acetyl-2-allyloxy-benzoic acid], the “Glucose (Absolute change from Control)” value ([1]; Table 1, aqueous solution) is reported as 0.6%.
For `C=CCOc1ccc(Br)cc1C(=O)O` [Compound 18, 2-Allyloxy-5-bromo-benzoic acid], the “Glucose (Absolute change from Control)” value ([1]; Table 1, aqueous solution) was −5.0%.
With `C=CCOc1ccc(Cl)cc1C(=O)O` [Compound 19, 2-Allyloxy-5-chloro-benzoic acid] the “Glucose (Absolute change from Control)” value ([1]; Table 1, aqueous solution) was −21.5%.
With `C=C(C)COc1ccc(C(=O)O)cc1` [Compound 20, 4-(2-Methyl-allyloxy)-benzoic acid] the “Glucose (Absolute change from Control)” value ([1]; Table 1, aqueous solution) was −51.1%.
`C=C(C)COc1cccc(C(=O)O)c1` [Compound 21, 3-(2-Methyl-allyloxy)-benzoic acid] was tested, and the “Glucose (Absolute change from Control)” value ([1]; Table 1, aqueous solution) was −27.4%.
`C=CCOc1cc(C(=O)O)ccc1OC` [Compound 22, 3-Allyloxy-4-methoxy-benzoic acid] was tested, and the “Glucose (Absolute change from Control)” value ([1]; Table 1, aqueous solution) was −10.2%.
In the case of `C=C(C)COc1cc(C(=O)O)ccc1OC` [Compound 23, 4-Methoxy-3-(2-methyl-allyloxy)-benzoic acid], the “Glucose (Absolute change from Control)” value ([1]; Table 1, aqueous solution) is reported as −8.4%.
`CCCOc1cccc(C(=O)O)c1` [Compound 24, 3-Propoxy-benzoic acid] was tested, and the “Glucose (Absolute change from Control)” value ([1]; Table 3) was −15.2%.
For `CCCOc1ccc(C(=O)O)cc1` [Compound 25, 4-Propoxy-benzoic acid], the “Glucose (Absolute change from Control)” value ([1]; Table 3) was −25.5%.
For `CCCOc1ccccc1C(=O)O` [Compound 26, 2-Propoxy-benzoic acid], the “Glucose (Absolute change from Control)” value ([1]; Table 3) was −14.2%.
`CCCCOc1cccc(C(=O)O)c1` [Compound 27, 3-Butoxy-benzoic acid] was tested, and the “Glucose (Absolute change from Control)” value ([1]; Table 3) was −23.9%.
In the case of `CCCCOc1ccc(C(=O)O)cc1` [Compound 28, 4-Butoxy-benzoic acid], the “Glucose (Absolute change from Control)” value ([1]; Table 3) is reported as −22.3%.
In the case of `CCCCOc1ccccc1C(=O)O` [Compound 29, 2-Butoxy-benzoic acid], the “Glucose (Absolute change from Control)” value ([1]; Table 3) is reported as −34.9%.
For `CC(C)COc1ccc(C(=O)O)cc1` [Compound 30, 4-Isobutoxy-benzoic acid], the “Glucose (Absolute change from Control)” value ([1]; Table 3) was −29.8%.
`CC(C)COc1cccc(C(=O)O)c1` [Compound 31, 3-Isobutoxy-benzoic acid] was tested, and the “Glucose (Absolute change from Control)” value ([1]; Table 3) was −9.5%.
With `C=CCOCc1ccc(C(=O)O)cc1` [Compound 32, 4-Allyloxymethyl-benzoic acid] the “Glucose (Absolute change from Control)” value ([1]; Table 5) was −19.5%.
For `C=CCCOCc1ccc(C(=O)O)cc1` [Compound 33, 4-But-3-enyloxymethyl-benzoic acid], the “Glucose (Absolute change from Control)” value ([1]; Table 5) was −38.5%.
`C=CC(C)OCc1ccc(C(=O)O)cc1` (centres unmarked) [Compound 34, 4-(1-Methyl-allyloxymethyl)-benzoic acid] was tested, and the “Glucose (Absolute change from Control)” value ([1]; Table 5) was −16.6%.
With `C=C(C)COCc1ccc(C(=O)O)cc1` [Compound 35, 4-(2-Methyl-allyloxymethyl)-benzoic acid] the “Glucose (Absolute change from Control)” value ([1]; Table 5) was −16.0%.
In the case of `C=CCCOCc1cccc(C(=O)O)c1` [Compound 36, 3-But-3-enyloxymethyl-benzoic acid], the “Glucose (Absolute change from Control)” value ([1]; Table 5) is reported as −20.7%.
In the case of `C=C(C)COCc1cccc(C(=O)O)c1` [Compound 37, 3-(2-Methyl-allyloxymethyl)-benzoic acid], the “Glucose (Absolute change from Control)” value ([1]; Table 5) is reported as −8.4%.
With `C=CCOCc1cccc(C(=O)O)c1` [Compound 38, 3-Allyloxymethyl-benzoic acid] the “Glucose (Absolute change from Control)” value ([1]; Table 5) was −13.1%.
With `CCOCc1ccc(C(=O)O)cc1` [Compound 39, 4-Ethoxymethyl-benzoic acid] the “Glucose (Absolute change from Control)” value ([1]; Table 5) was −1.9%.
For `CC(C)OCc1ccc(C(=O)O)cc1` [Compound 40, 4-Isopropoxymethyl-benzoic acid], the “Glucose (Absolute change from Control)” value ([1]; Table 5) was −31.9%.
For `CCCOCc1ccc(C(=O)O)cc1` [Compound 41, 4-Propoxymethyl-benzoic acid], the “Glucose (Absolute change from Control)” value ([1]; Table 5) was −19.2%.
For `CCOCc1cccc(C(=O)O)c1` [Compound 42, 3-Ethoxymethyl-benzoic acid], the “Glucose (Absolute change from Control)” value ([1]; Table 5) was −11.3%.
For `CC(C)OCc1cccc(C(=O)O)c1` [Compound 43, 3-Isopropoxymethyl-benzoic acid], the “Glucose (Absolute change from Control)” value ([1]; Table 5) was −29.3%.
In the case of `CCCOCc1cccc(C(=O)O)c1` [Compound 44, 3-Propoxymethyl-benzoic acid], the “Glucose (Absolute change from Control)” value ([1]; Table 5) is reported as −20.8%.
